We go through 1 compound from patent EP4497440A1, “USE OF 7-TRIFLUOROMETHYL-7ALPHA,25-DIHYDROXYCHOLESTEROL IN THE TREATMENT AND MODULATION OF AUTOIMMUNE AND INFLAMMATORY DISEASES OF THE NERVOUS SYSTEM AND NEURODEGENERATIVE DISEASES” (Gdanski Uniwersytet Medyczny, priority 2023, dated 2025).

Series [1] concerns mice in the cuprizone model. As to the kind of experiment: Cuprizone model: luxol fast blue staining, lipoprotein (myelin) density in the corpus callosum. It is filed as in vivo. The conditions noted are these: 20 mg/kg subcutaneously once a day for 2 weeks after 9 weeks of cuprizone (group #5), compared to vehicle group #3. The source says:
Measurement of lipoprotein density in myelin sheaths, taken on sections of brains of the mice in the cuprizone model. The mice in the cuprizone model subject were divided into 6 groups: • #1. control group: regular cuprizone-free chow for 9 weeks. The mice were euthanised after 9 weeks and tissue samples were taken for analysis. In these mice no removal of myelin sheaths occurred. • #2. control group with cuprizone: chow containing cuprizone for 9 weeks. The mice were euthanised after 9 weeks and tissue samples were taken for analysis. In the mice fed with chow containing cuprizone myelin sheaths were removed. • #3. vehicle control group - the mice were fed with chow containing cuprizone for 9 weeks, and then with regular chow without cuprizone for 2 weeks. Over the 2 weeks on regular show the mice in the vehicle control group were first injected with vehicle #1: DMSO, intraperitoneally, 150 µl once a day, and then with vehicle #2: canola oil, subcutaneously, 150 µl once a day. • #4. barbadin control group - the mice were fed with chow containing cuprizone for 9 weeks and then with regular chow without cuprizone for 2 weeks. Over the 2 weeks on regular chow the mice in this group were injected with barbadin 0.3 mg/kg, intraperitoneally, 150 µl once a day and then with vehicle #2: canola oil, subcutaneously, 150 µl once a day. • #5. oxysterol experimental group - the mice were fed with chow containing cuprizone for 9 weeks and then with regular chow without cuprizone for 2 weeks. […] Brain sections sampled from the mice were histochemically stained with luxol fast blue (Abcam, cat. No. Ab 150675), and the intensity (density) of the lipid staining in the corpus callosum was measured using the ImageJ software (ImageJ (nih.gov)). […]

In the next series the test system is Ebi2 receptor. As to the kind of experiment: Ebi2 mRNA level in the cerebellum, cuprizone model. It counts as in vivo, mice. To be noted: during remyelination in the cuprizone model.
For another series, the system named is Ch25h, Cyp7b1, Hsd3b7. Nature of the series: mRNA level of synthesizing and degrading enzymes in the cerebellum, cuprizone model. It counts as in vivo, mice.
Another series deals with lymphocytes. Nature of the series: Short-term pharmacology model: blood count after a single injection. It counts as in vivo, mice. To be noted: single subcutaneous injection. How it is done:
Mouse groups in the short-term pharmacology model (Fig 10): Control: one vehicle injection (canola oil). The number of lymphocytes in the group is marked on the graph with the transverse line. The vehicle injection was administered to the mice subcutaneously (100 µl), following which the mice were euthanized after 6 hours (8 mice), 12 hours (8 mice), 24 hours (8 mice), or 48 hours (8 mice).
The 0.8 mg/kg dose group: single injection with CF3-7α,25OHC at the dose of 0.8 mg/kg. The oxysterol injection was administered to the mice subcutaneously (100 µl), following which the mice were euthanized after 6 hours (8 mice), 12 hours (8 mice), 24 hours (8 mice), or 48 hours (8 mice).
The 4 mg/kg dose group: single injection with CF3-7α,25OHC at the dose of 4 mg/kg. The oxysterol injection was administered to the mice subcutaneously (100 µl), following which the mice were euthanized after 6 hours (8 mice), 12 hours (8 mice), 24 hours (8 mice), or 48 hours (8 mice).
The 20 mg/kg dose group: a single injection with CF3-7α,25OHC at the dose of 20 mg/kg. The oxysterol injection was administered to the mice subcutaneously (100 µl), following which the mice were euthanized after 6 hours (8 mice), 12 hours (8 mice), 24 hours (8 mice), or 48 hours (8 mice).
The 100 mg/kg dose group: a single injection with CF3-7α,25OHC at the dose of […]. […]

For series [2] the following is noted: in vivo, from reference [6]; cited from earlier work.
Series [3] has as its system pro-inflammatory cytokine IL1β. As to the kind of experiment: Cuprizone model: IL1β mRNA in cerebellum lysates by PCR.
Source text: Identifying the mRNA levels of pro-inflammatory cytokine IL1β in mouse cerebellum lysates (Fig 11).

For the compound `C[C@H](CCCC(C)(C)O)[C@H]1CC[C@H]2[C@H]3[C@H](CC[C@]12C)[C@@]1(C)CC[C@H](O)CC1=C[C@]3(O)C(F)(F)F` [CF3-7α,25OHC, cholestene-7β-trifluoromethyl,3β,7α,25-triol], in series [1], the “lipoprotein density in the corpus callosum, higher by” value is 16% and the “myelin density / myelin regeneration in the corpus callosum” value is “increased”. Also, in series [1] (listed as CF3-7α25OHC), the “myelin density / myelin regeneration in the corpus callosum” value is “more efficient (or faster) myelin regeneration”. In the series with Ebi2 receptor, the “level of Ebi2 expression” value is listed as “increases the level of Ebi2 expression”. Besides, the “expression level of the synthesizing (Ch25h, Cyp7b1) and degrading (Hsd3b7) enzymes” value with Ch25h, Cyp7b1, Hsd3b7 is “does not regulate the expression level”. The “duration of the lymphocyte-reducing effect following administration” value in the series on lymphocytes came to 24 h. Besides, the “lowest dose that reduces the level of lymphocytes” value in the series with lymphocytes (doses 0.8, 4, 20, 100 mg/kg, blood count after 6, 12, 24 or 48 hours) is recorded as 4 mg/kg. For the same compound, the “in vivo half life” value in series [2] is 12 h. Moreover, the “mRNA level of IL1β dropped by” value in series [3] (cerebellum lysates, cuprizone model, compared to the group treated solely with vehicles) worked out at 28%. Further, the blood-brain barrier penetration entry in series [3] (concluded from the IL1β effect in the cerebellum) was “penetrates the blood-brain barrier”. In addition, in series [3] (cuprizone model, group #5), the “pro-inflammatory cytokine IL1β in cerebellum lysates” value is “Reduction”.
